Experiments:
[1] = target: T1, human β3-AR (Homo sapiens, UniProt P13945); assay: cAMP accumulation (SPA) in CHO cells transfected with human β3-AR; type: cell-based; conditions: CHO cells transfected with human β3-AR
T1 construct: Full-length β3-AR clones (402 amino acids) containing the last 6 amino acids of hβ3-AR; expressed in transfected cells; host or cells: CHO (Chinese hamster ovary) cells
Experimental: The ability of the compounds of this invention to treat or inhibit disorders related to insulin resistance or hyperglycemia was confirmed with representative compounds of this invention in the following standard pharmacological test procedures, which measured the binding selectivity of the β1-, β2-, and β3-AR. Binding to the receptors was measured in Chinese Hamster ovary (CHO) cells that were transfected with β1-, β2-, and β3-AR's. The following briefly summarizes the procedures used and results obtained.
Cloning of Human β3-AR Genomic DNA: cDNA was constructed by ligating four polymerase chain reaction (PCR) products using the following primers: an ATG-Narl fragment, sense primer 5′-[…]3′ and anti-sense primer 5′[…]3′; a Narl-Accl fragment, 5′[…]3′ as sense and 5′[…]3′ as anti-sense primer; an Accli—Styl fragment, sense primer 5′[…]3′ and anti-sense primer 5′[…]3′ and a Styl-TAG fragment, with sense primer 5′ […]3′ and anti-sense primer 5′ […]3′ . The corresponding primer sequences are described in Mantzoros, C. S., et.al., Diabetes, 1996, 45, 909-914. The four fragments are ligated into a pUC 18 plasmid (Gibco-BRL) and sequenced. Full-length β3-AR clones (402 amino acids) containing the last 6 amino acids of hβ3-AR are prepared with the β3-βARpcDNA3 from ATTC.
Binding Procedure: Clones expressing receptor levels of 70 to 110 fmoles/mg protein were used in the test procedures. CHO cells were grown in 24-well tissue culture plates in Dulbecco's Modified Eagle Media with 10% fetal bovine serum, MEM non-essential amino acids, Penicillin—Streptomycin and Geneticin. On the day of test procedure, growth medium was replaced with preincubation media (Dulbecco's Modified Eagle Media) and incubated for 30 minutes at 37° C. Pre-incubation medium was replaced with 0.2 ml treatment medium containing DMEM media containing 250 μM IBMX (isobutyl-1-methylxantine) plus 1 mM ascorbic acid with test compound dissolved in DMSO. Test compounds were assayed over a concentration range of 10^−9 M to 10^−5 M for β3-AR transfected cells and 10^−8 to 10^−4 M for β1-AR and β2-AR transfected cells. Isoproterenol (10^−5 M) was used as an internal standard for comparison of activity. Cells were incubated at 37° C. on a rocker for 30 min with the β3-AR transfected cells and 15 min with β1-AR and β2-AR transfected cells. Incubation was stopped by the addition of 0.2N HCl and the acid was neutralized with 2.5N NaOH. The plates, containing the cells and neutralized media, were stored at −20° C. until ready to test for cAMP using the SPA test kit (Amersham).
Data Analysis and Results: Data collected from the SPA test procedure were analyzed as percent of the maximal isoproterenol response at 10^−5 M. Activity curves were plotted using the SAS statistical and graphics software.

T1 sequence (P13945 whole entry): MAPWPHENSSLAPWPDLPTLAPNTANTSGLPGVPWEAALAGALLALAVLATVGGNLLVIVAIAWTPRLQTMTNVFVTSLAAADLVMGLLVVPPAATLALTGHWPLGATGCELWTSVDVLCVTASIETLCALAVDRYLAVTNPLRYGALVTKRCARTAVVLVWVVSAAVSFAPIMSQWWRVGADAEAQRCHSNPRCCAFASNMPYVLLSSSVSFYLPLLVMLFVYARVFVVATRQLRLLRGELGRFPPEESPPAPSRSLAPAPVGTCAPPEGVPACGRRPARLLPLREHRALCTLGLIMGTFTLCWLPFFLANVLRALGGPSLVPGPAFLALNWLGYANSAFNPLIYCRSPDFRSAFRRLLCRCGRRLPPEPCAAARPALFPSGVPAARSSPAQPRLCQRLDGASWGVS

melting point: 222.5 to 224.5 °C (dec.)
EC50 ([1]; cAMP by SPA, 30 min at 37° C., 10^−9 M to 10^−5 M, read-out: EC50(β3)): 1.42 µM
IA(β3) ([1]; maximal response of compound relative to maximal response of isoproterenol at 10^−5 M): 0.83
Structure (SMILES): CC(C)(Cc1ccc(NC2=NS(=O)(=O)N=C2NCC(c2ccccc2)c2ccccc2)cc1)NC[C@H](O)COc1ccc(OCc2ccccc2)cc1 [Compound 28]

From patent US6395762B1, “Phenyl amino squarate and thiadiazole dioxide beta-3 adrenergic receptor agonists” (American Home Products Corporation, priority 2000, dated 2002)
